Experimental data published in ChEMBL document CHEMBL3779779, “Discovery of non-peptide small molecular CXCR4 antagonists as anti-HIV agents: Recent advances and future opportunities” (Eur J Med Chem, 2016).
One block for each compound: values may come before it.

How the values were obtained:
[1] = tested on: Human immunodeficiency virus 1; assay: Antiviral activity against HIV1 3B infected in human MT4 cells assessed as reduction in virus-induced cytopathic effect after 5 days by MTT assay; assay type: functional, organism-based; conditions: Human immunodeficiency virus 1, 3B, MT4, 120 h
[2] = Selectivity index, ratio of CC50 for human MT4 cells to EC50 for HIV1 3B infected in human MT4 cells; assay type: toxicity, cell-based; conditions: read-out: Ratio CC50/EC50
[3] = biological target: C-X-C chemokine receptor type 4 (Homo sapiens, UniProt P61073); assay: Displacement of [125I]SDF-1 from human CXCR4 expressed in HEK293 cell membrane; assay type: cell membranes
C-X-C chemokine receptor type 4, sequence (P61073 whole entry): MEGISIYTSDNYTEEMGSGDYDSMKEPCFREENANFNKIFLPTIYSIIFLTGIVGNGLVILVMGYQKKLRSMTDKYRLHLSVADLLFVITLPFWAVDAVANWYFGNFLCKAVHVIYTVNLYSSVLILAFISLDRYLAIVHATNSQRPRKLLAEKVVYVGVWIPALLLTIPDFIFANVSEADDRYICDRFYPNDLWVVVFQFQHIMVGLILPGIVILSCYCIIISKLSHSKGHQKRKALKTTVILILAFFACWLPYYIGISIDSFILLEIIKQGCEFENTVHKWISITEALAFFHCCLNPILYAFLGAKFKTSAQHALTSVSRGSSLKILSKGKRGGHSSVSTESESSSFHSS

[4] = tested on: Human immunodeficiency virus; assay: Antiviral activity against HIV LAV Clade B infected in human MT4 cells assessed as inhibition of syncytia formation preincubated with cells for 1 hr followed by viral infection […] by inverted optical microscopic analysis; assay type: functional, organism-based; conditions: Human immunodeficiency virus 1, LAV Clade B
[5] = Selectivity index, ratio of CC50 for human MT4 cells to EC50 for HIV LAV Clade B infected in human MT4 cells; assay type: toxicity, cell-based; conditions: read-out: Ratio CC50/EC50
[6] = tested on: Human immunodeficiency virus 1; assay: Antiviral activity against HIV1 clinical isolate R5/X4 by cell based assay; assay type: functional, organism-based; conditions: Human immunodeficiency virus 1, isolate R5/X4
[7] = tested on: Human immunodeficiency virus 1; assay: Antiviral activity against HIV1 clinical isolate R5 by cell based assay; assay type: functional, organism-based; conditions: Human immunodeficiency virus 1, isolate R5
[8] = tested on: Human immunodeficiency virus 1; assay: Antiviral activity against HIV1 clinical isolate X4 by cell based assay; assay type: functional, organism-based; conditions: Human immunodeficiency virus 1, isolate X4
[9] = tested on: Human immunodeficiency virus 1; assay: Antiviral activity against HIV1 NL4-3 clinical isolate X4 infected in human MT4 cells assessed as reduction in virus-induced cytopathic effect after 5 days by MTT assay; assay type: functional, organism-based; conditions: Human immunodeficiency virus 1, NL4-3 isolate X4, MT4, 120 h
[10] = Tmax in Swiss Webster mouse plasma at 25 mg/kg, sc by LC-MS/MS analysis; assay type: ADME, organism-based
[11] = tested on: Human immunodeficiency virus 1; assay: Antiviral activity against HIV1 infected in human MT4 cells assessed as reduction in virus-induced cytopathic effect after 4 to 5 days by MTS assay; assay type: functional, organism-based; conditions: Human immunodeficiency virus 1, MT4
[12] = Elimination half life in dog plasma at 0.41 mg/kg, iv and 0.41 to 2.05 mg/kg, sc by LC-MS/MS analysis; assay type: ADME, organism-based, Canis lupus familiaris; conditions: read-out: beta t1/2 (converted)
[13] = tested on: Human immunodeficiency virus 2; assay: Antiviral activity against HIV2 ROD infected in human MT4 cells assessed as reduction in virus-induced cytopathic effect after 5 days by MTT assay; conditions: Human immunodeficiency virus 2, ISOLATE ROD, MT4, 120 h

Compound: c1cc(CN2CCCSCCSCCCNCC2)ccc1CN1CCCSCCSCCCNCC1
- EC50 [1]: > 6800 nM

Compound: c1cc(CN2CCCOCCOCCCNCC2)ccc1CN1CCCOCCOCCCNCC1
- EC50 [1]: > 363000 nM

Compound: C1CNCCNCCCN[C@H]([C@@H]2CNCCCNCCNCCCN2)CNC1
- EC50 [1]: 100 nM
- selectivity ratio [2]: > 1000

Compound: C1CNCCNCCCN(CCCN2CCCNCCNCCCNCC2)CCNC1
- EC50 [1]: 248 nM
- selectivity ratio [2]: > 2500

- EC50 [3]: 68.4 nM
Compound: c1ccc2c(NC3CCNCC3)nc(NCc3ccc(CNCCCNC4CCCCC4)cc3)nc2c1

- EC50 [4]: 5 nM
Compound: Cc1cn([C@H]2C[C@H](N=[N+]=[N-])[C@@H](COC(=O)CCCCN3CCCN(Cc4ccc(CN5CCCNCCNCCCNCC5)cc4)CCNCCCNCC3)O2)c(=O)[nH]c1=O
- selectivity ratio [5]: 15000

Compound: c1cc(CN2CCCNCCOCCCNCC2)ccc1CN1CCCNCCOCCCNCC1
- EC50 [1]: 4500 nM

- EC50 [4]: 10 nM
Compound: Cc1cn([C@H]2C[C@H](N=[N+]=[N-])[C@@H](COC(=O)CCCCN3CCCNCCNCCCNCC3)O2)c(=O)[nH]c1=O

Compound: CC(C)CN(CCC[C@H](NC(=O)c1ccc(CNCc2ncc[nH]2)cc1)C(=O)N[C@@H](C)c1cccc2ccccc12)CC(C)C
- EC50 [1]: 6.7 nM

- EC50 [4]: 5 nM
Compound: Cc1cn([C@H]2C[C@H](N=[N+]=[N-])[C@@H](COC(=O)CCCCN3CCCN(Cc4ccc(CN5CCCN(C(=O)OC(C)(C)C)CCN(C(=O)OC(C)(C)C)CCCN(C(=O)OC(C)(C)C)CC5)cc4)CCN(C(=O)OC(C)(C)C)CCCN(C(=O)OC(C)(C)C)CC3)O2)c(=O)[nH]c1=O
- selectivity ratio [5]: 1000

Compound: c1cc(CN2CCCNCCCCCCNCC2)ccc1CN1CCCNCCCCCCNCC1
- EC50 [1]: 9600 nM

- EC50 [6]: 1200 nM
- EC50 [7]: 1200 nM
- EC50 [8]: 1200 nM
Compound: Clc1cc(CN2CCCNCCNCCCNCC2)cc(Cl)n1

Compound: CCCN(CCC)CCCCNC(=O)c1ccc(CN(Cc2ncc[nH]2)Cc2ncc[nH]2)cc1
- EC50 [1]: 4 nM

Compound: Cn1c(CN(CCN2CCCCC2)CC2CCCN(C3CCCC3)C2)nc2ccccc21 (centres undefined)
- EC50 [9]: 600 nM

- Tmax [10]: 15 min
- half-life [12]: 93.6 min
Compound: c1ccc(CNCc2ccc(CN3CCCNCCNCCCNCC3)cc2)nc1
- EC50 [11]: 1 nM

Compound: c1cc(CN2CCCNCCNCCCNCC2)ccc1CN1CCCNCCNCCCNCC1 [PLERIXAFOR]
- EC50 [13]: 2 nM
